The values that follow are results of earlier work, collected in patent publication US9272137B2, “Transdermal methods and systems for the delivery of anti-migraine compounds” (Teva Pharmaceuticals International GmbH, priority 2006, dated 2016).

SMILES strings stand for the structures.

In the case of `CNS(=O)(=O)Cc1ccc2[nH]cc(CCN(C)C)c2c1` [Sumatriptan], the serum elimination half-life (in vivo) was 2 h. In addition, under “majority of patients”, the “time within which most of the active drug is eliminated” value was 4 to 6 h.
